The values below come from paper PMC12147445, “Dual-Active Nanoimmunomodulators for the Synergistic Enhancement of the Antitumor Efficacy of Photodynamic Immunotherapy” (Biomaterials Research, 2025).

The nature of series [1]: Blood routine examination. The format is in vivo, BALB/c female mice. The conditions noted are these: CT26 tumor mice, i.v. every 2 d x5, day 18, no light, mean ± SD. The procedure:
(§1) CT26 cells were inoculated on the back of BALB/c female mice to construct a subcutaneous tumor model (Fig. S2A). The groups were treated as follows (the same groupings as below): MAC (2.0 mg/kg), CPP (PIX content of 1.8 mg/kg), and CPPM (PIX and MAC contents of 1.8 and 2.0 mg/kg, respectively) were injected separately through the tail vein, and the light group was irradiated using a laser for 6 h after drug administration for 10 min (intensity of 50% and power of 0.68 W). The mice were treated every 2 d for a total of 5 treatments, and tumor volume and body weight were measured every other day. On day 18, the mice were executed by cervical dislocation, and their blood was removed and dissected. The spleens of the mice were weighed, and the mouse tumor tissues were stained for Ki67, terminal deoxynucleotidyl transferase dUTP nick end labeling (TUNEL), and CD3/CD8. Different concentrations of CPPM solutions were prepared with saline; 100 μl of CPPM solution was added into 2 ml of mouse blood and mixed well and incubated in a 37 °C water bath for 1 h. After centrifugation, 100 μl of the supernatant was taken into a 96-well plate, and the absorbance value was measured by an enzyme-labeling instrument at a wavelength of 540 nm and the hemolysis rate was calculated. In addition, blood biochemistry and blood routine indexes were analyzed, and hematoxylin–eosin (H&E) staining was performed on tumor tissues and major organs.

Series [2] relates to CT26 cells. Put plainly: Cytotoxicity test by the MTT method. Format: cell-based, mouse. Conditions: for cytotoxicity (MTT), dark: CT26, no light, highest PIX 6 μg/ml and MAC 6.72 μg/ml, 6 h + 24 h. The procedure: CT26 cells were seeded into 96-well plates, and materials with different concentration gradients were prepared. Different materials were added into 96-well plates at 100 μl per well according to the concentration gradient, respectively. The highest concentration of PIX in CPP was 6 μg/ml. The highest concentrations of PIX and MAC in CPPM were 6 and 6.72 μg/ml, respectively. After 6 h of incubation, the CPP light group and CPPM light group were irradiated using infrared light for 3 min, and after 24 h, 20 μl of MTT reagent was added, and the absorbance was detected by an enzyme meter (570 nm) and the cell viability was calculated.

The test system of series [3] is CT26 cells. Put plainly: Flow cytometric apoptosis assay. Format: cell-based, mouse. Conditions: flow cytometry annexin V-FITC/PI, 6 h incubation; for apoptosis of CT26 cells, dark: no light. The procedure: After the CT26 cells were cultured on the wall, MAC, CPP, and CPPM were added and incubated for 6 h, and the light group was light-exposed for 5 min, respectively. After the cells were washed, 1× annexin V–FITC (195 μl), annexin V–FITC (5 μl), and PI staining solution (10 μl) were added, respectively, and the reaction was detected by flow cytometry after 10 to 15 min. The concentrations of PIX and MAC in CPPM were […] and 3.3 μg/l, respectively.
On the technique in general: In flow cytometry, cells or beads pass a laser one at a time.

Series [4] concerns CT26 subcutaneous tumor. Kind of series: Tumor growth inhibition, CT26 subcutaneous tumor model. Format: in vivo, BALB/c female mice. Conditions: for antitumor effect (tumor size, volume, weight), no light: MAC 2.0 mg/kg, PIX 1.8 mg/kg, tail vein every 2 d x5, n = 5. The procedure: as §1
The test system of series [5] is CT26 lung metastasis. Kind of series: In vivo antitumor metastasis study (lung metastasis model). More on the design: species or system BALB/c female mice. Conditions: 10 d of treatment, n = 3. The protocol: The mouse lung metastasis model was established by inoculating CT26 cells on the back of BALB/c female mice and injecting 2 × 10^6 CT26 cells labeled using green fluorescent protein through the tail vein when the tumor volume of the loaded mice reached 100 mm^3 (Fig. S2C). The groups were treated in the same manner as those in the immune response study. The mice were executed after 10 d of treatment, and the lung tissues of the mice were excised and photographed, and the metastatic lung nodules were quantified and H&E-stained for further examination of the extent of lung metastasis.

Series [6] is described as follows: Drug content / loading efficiency (PIX by UV-Vis, MAC by HPLC). The format is physicochemical. The conditions noted are these: UV-Vis at 630 nm, sample diluted to 1 mg/ml. The protocol: CPP and CPPM were diluted to 1 mg/ml each. MAC was quantified by HPLC with a mobile phase A of water (0.2% TFA), a mobile phase B of acetonitrile, a flow rate of 1 ml/min, and a gradient elution of 10% to 100% B. The peak area of different concentrations of MAC was tested at 277 nm out, and the standard curve was plotted and the drug concentration was tested. PIX was quantified by ultraviolet–visible absorption spectrometry (UV–Vis), and the absorption values of different concentrations of PIX were determined at 630 nm, and the standard curve was plotted and the concentration of PIX was tested. Subsequently, the drug release profiles were determined by HPLC in release media at potential of hydrogen (pH) 5.3 and 7.4.

Series [7] relates to CT26 cells. Kind of series: Intracellular ROS detection (DCFH-DA probe). Format: cell-based, mouse. Conditions: CT26, 6 h incubation. The procedure: The CT26 cells were incubated for 6 h with the addition of MAC, CPP, and CPPM materials, respectively, after wall culture. Subsequently, a 2,7-dichlorodihydrofluorescein diacetate probe was added to stain the cells for 30 min, and the CPP light group and CPPM light group were illuminated for 3 min, and the cells were observed and analyzed by microscopy. The experimental groupings were (the same groupings as below): blank group (blank), MAC group (MAC), CPP group (CPP), CPP light exposure group (CPP+), CPPM group (CPPM), and CPPM light exposure group (CPPM+). The concentration of PIX in CPP was 6 μg/l. The concentrations of PIX and MAC in CPPM were 6 and 6.72 μg/l, respectively.

The nature of series [8]: In vitro 1O2 assay (Singlet Oxygen Sensor Green). The conditions noted are these: PBS, SOSG probe, 630-nm laser, measured every 15 s. Format: physicochemical. The procedure: To further explore the ROS-producing behavior of CPPM, MAC, CPP, and CPPM were prepared into 1-ml solutions with phosphate-buffered saline, and 10 μl of reactive oxygen Singlet Oxygen Sensor Green probe was added to each set of solutions. The resulting fluorescence intensity was measured as F0 in an F-302 model fluorescence spectrophotometer (excitation wavelength of 488.0 nm, wavelength range of 500.0 to 550.0 nm), and the fluorescence intensity was measured as Ft under 630-nm laser irradiation every 15 s. The concentration of PIX in CPP was 3 μg/l. The concentrations of PIX and MAC in CPPM were 3 and 3.3 μg/l, respectively.

Series [9] deals with CT26 cells. Kind of series: ICD immunofluorescence assay (CRT, HMGB1). Format: cell-based, mouse. The conditions noted are these: CT26, PIX 6 μg/ml, MAC 6.72 μg/ml, 630 nm 29.8 mW cm^-2 10 min. The protocol:
MAC, CPP, and CPPM were added to CT26 cells, and the light group was incubated for 6 h and then irradiated with light-emitting diode light (630 nm, 29.8 mW cm^−2) for 10 min. After continuing incubation for 4 h, paraformaldehyde (4%) and 0.1% Triton X-100 were added for fixation and permeabilization of cells, respectively. Subsequently, the cells were incubated with CRT or HMGB1 fluorescent primary antibody overnight ([…]), secondary antibody for 1 h, and DAPI for 20 min and then observed by microscopy. The PIX concentration was 6 μg/ml, and the MAC concentration was 6.72 μg/ml.

In [1], `CCCNS(=O)(=O)Nc1ncnc(OCCOc2ncc(Br)cn2)c1-c1ccc(Br)cc1` [MAC, Macitentan, reference compound] gave a PCT of 0.21 ± 0.06% and a PDW of 17.89 ± 0.54. Also, in series [1] (reference 0.00–0.30), the Mon is given as 5.54 ± 1.77 10^9/l. Besides, the Gran in [1] (reference 0.10–1.80) is reported as 116.23 ± 32.29 10^9/l. In addition, in [1] (reference 0.70–5.70), the Lymph was 24.74 ± 5.26 10^9/l. Moreover, in series [1] (reference 0.80–6.80), the WBC is recorded as 132.48 ± 37.09 10^9/l. Besides, in series [1] (reference 6.36–9.42), the RBC is on record as 7.82 ± 0.54 10^12/l. Also, the RDW in series [1] (reference 13.00–17.00) is recorded as 14.91 ± 0.48%. Besides, the MCH in series [1] (reference 15.80–19.00) was 16.61 ± 1.12 pg. For the same molecule, the HCT in [1] (reference 34.60–44.60) came out at 37.4 ± 2.73%. Moreover, in series [1] (reference 48.20–58.30), the HCV amounted to 52.75 ± 2.51 fL. In addition, in series [1] (reference 110.00–143.00), the HGB is 115.11 ± 15.08 g/L. In addition, the MCHC in series [1] (reference 302.00–353.00) stood at 318.78 ± 20.68 g/L. For the same molecule, in series [2], the “cytotoxicity (MTT), dark” value is given as “no significant toxic effects”. Further, in series [3], the “apoptosis of CT26 cells, dark” value is listed as “lower apoptosis rates”. Further, the “antitumor effect (tumor size, volume, weight), no light” value in series [4] is reported as “low antitumor properties”. Moreover, the “lung metastasis, no light” value in series [5] is listed as “lung metastasis obviously occurred”.

Regarding “C (PEG5000-Mal)-VRARTR-PIX [CPP, PEG5000-Mal assembled with CP; CPP+ is the light exposure group]”, in series [6], the “loading efficiency of PIX” value is recorded as 12.09%. In [2] (CT26, 6 h incubation then light 3 min, 24 h, highest PIX 6 μg/ml), the “cytotoxicity (MTT), light” value is listed as “stronger cytotoxicity”. The “cytotoxicity (MTT), dark” value in series [2] is “no significant toxic effects”. Also, the “apoptosis of CT26 cells, light” value in series [3] (light 5 min) is “significantly higher”. Moreover, the “apoptosis of CT26 cells, dark” value in [3] is listed as “lower apoptosis rates”. The “antitumor effect (tumor size, volume, weight), no light” value in series [4] was “low antitumor properties”. For the same molecule, the “antitumor effect (tumor size, volume, weight), light” value in [4] (PIX 1.8 mg/kg (MAC 2.0 mg/kg), tail vein every 2 d x5, laser 10 min 6 h after dosing, n = 5) was “able to inhibit tumor growth”. In [5] (laser), the “lung metastasis, light” value was “a few lung metastases were visible”. For the same molecule, the “lung metastasis, no light” value in series [5] is “lung metastasis obviously occurred”. Moreover, the “intracellular ROS, light” value in series [7] (light 3 min) is “showed green fluorescence”. Also, in series [7] (no light), the “intracellular ROS, dark” value is listed as “did not produce ROS”. Moreover, the 1O2 generation result in series [8] was “could produce ^1O2 under light conditions”. Besides, in series [9], the “CRT expression on the cell membrane under PDT” value is “increase the expression of CRT on the cell membrane” and the “HMGB1 in tumor cells under PDT” value is reported as “significantly attenuated”.
